What was measured:
[1] = tested on: Runx2 in SaOS-2 cells; settings: DHT 24 hrs
Description: Data are representative of at least three independent experiments.
(§5) Transient transfection, luciferase, co-IP and ChIP—These assays were performed essentially as previously described (34, 51).

[2] = tested on: Runx1; settings: COS7, 6XOSE2-luc (FIG. 25)
Description: The ability of sex steroids and their receptors to repress Runx1 was determined by transient transfection assays of COS7 cells as described earlier for Runx2.
We tested the effects of ERαX, ERβ, AR and GR on Runx1 activity using the same assay employed for Runx2.

[3] = tested on: Runx2 occupancy of the endogenous OSE2 site; settings: Day-9 MC3T3-E1, DHT four hours, ChIP
Description: Occupancy was quantified by qPCR of an OC promoter fragment containing the OSE2 site or a fragment of the insulin promoter as control.
To test whether the DNA-binding exclusion model operates in vivo, we investigated whether AR interferes with binding of Runx2 to its chromatin-embedded OSE2 element at the OC promoter in MC3T3-E1 cells.
A slight modification was introduced for immunoprecipitation using MC3T3-E1 and PC3-AR cells. These cells were plated in a 150 mm dish in phenol-red free media supplemented with 5% CSS. The MC3T3-E1 cell culture medium was further supplemented, commencing at confluence, with 50 μg/ml ascorbic acid and 150 mM β-glycerophosphate.

[4] = tested on: endogenous Runx2 in PC3-AR cells; settings: DHT 24 hrs; not in PC3-GFP cells
Description: B. PC3 cell that had been stably transduced with lentiviruses encoding AR or GFP were transiently transfected with the MMTV-Luc (left) or 6XOSE2-Luc (middle) reportersk, followed by luciferase assay, or, they were subjected to RT-qPCR analysis of the OC gene (right). […] Mean±SEM, n=4.
To study the influence of AR on Runx2 activity and on the Runx2 target gene OC in PCa cells, AR was first stably introduced into PC3 cells by retroviral infection. The transduced cells, designated PC3-AR, presumably resemble PCa cells that endogenously express both Runx2 and wild type AR. These cells were transiently transfected with the MMTV-Luc or the 6XOSE2-Luc reporter plasmid. PC3-GFP cells, transduced with a GFP-encoding retrovirus, were used as control.
Quantitative real time RT-PCR—Total RNA was isolated using Aurum Total RNA® kit (Bio-Rad, Hercules, Calif.) following the manufacturer's recommendations. One microgram of total RNA was reverse-transcribed using the Superscript III kit (Invitrogen) and the cDNA was subjected to real-time PCR amplification (RTqPCR) using iQ™ SYBR Green Supermix (Bio-Rad).

[5] = tested on: MC3T3-E1 cells
Description: Staining with 4′,6-diamidino-2-phenylindole (DAPI) demarcates the cell nucleus.
A sub-line that had been stably transfected with the 6XOSE2-Luc reporter (51) was employed to simultaneously test the influence of AR on pure Runx2 activity (luciferase) and on OC gene expression.
Confocal immunofluorescence microscopy—Cells were grown on 18 mm^2 cover-slips in 6-well plates for 24 hrs in growth medium with CSS. […] Cells were mounted using Vectashield Hard Set mounting medium with DAPI (Burlingame, Calif.) and viewed using an LSM 510 Zeiss confocal microscope at 60× magnification. Images were processed using the software program Image J.

[6] = tested on: Runx2; experiment: 6XOSE2-Luc Runx2 reporter luciferase assay, COS7 cells transfected with Runx2 and AR; type: cell-based, human
Description: As COS7 cells were transiently transfected in 96 well format with the Runx2 reporter 6XOSE2-Luc (firefly luciferase) along with expression vectors encoding human Runx2, AR, and GR as indicated. […] B. Parallel sets of COS7 cell cultures were transfected with either the AR reporter MMTV-Luc or the Runx2 reporter 6XOSE-Luc, along with 1 ng each of AR and Runx2 expression plasmids. […] Bar graphs represent luciferase assays, in which the reporters OSE2-Luc (left panel) and MMTV-Luc (right panel), were transfected with expression plasmids encoding wild type AR (WT) or a mutant AR lacking the AF1 domain (ΔAF1) as indicated.
We examined the effect of AR on the transcriptional potential of Runx2 using transient transfection reporter assays COS7 cells, which express neither transcription factor, were transfected with plasmids encoding Runx2 and AR, along with the 6XOSE2-Luc reporter, in which luciferase is controlled by six copies of the OSE2 Runx2 binding site (53).
Since AR is a potent transcription factor, we investigated if its transactivation function was required for repressing Runx2. […] MMTV-Luc and 6XOSE2-Luc were used as reporters for monitoring the transactivation and Runx2 repression functions of AR, respectively, with equal amounts of each of AR and Runx2 expression plasmids co-transfected in both assays.
Unless otherwise stated, these hormones were applied at a final concentration of 10 nM in 0.001% ethanol as the vehicle.
as §5

[7] = tested on: endogenous Runx proteins in PC3 cells; settings: 6XOSE2-luciferase, 10 nM DHT
Description: Interaction between AR and Runx proteins in PC3 cells that express endogenous Runx proteins. A. EMSA assessing Runx protein activity using an OSE2 ^32P-labeled probe. Whole cell extracts from PC3 cells were shifted and supershifted with Runx1 and Runx2 antibodies respectively and successfully competed with WT 10× and 100×OSE2 unlabeled probe. […] Confocal of endogenous Runx (fluorescein) proteins and AR (rhodamine) under transfected or untransfected AR conditions.

[8] = tested on: Runx2; experiment: 6XOSE2-luc Runx2 reporter luciferase assay, COS7 cells transfected with Runx2 and ERβ; type: cell-based, human; settings: COS7, 6XOSE2-luc, 10 nM, 24 h
Description: (§1) FIG. 1. ERα inhibits Runx2. (A,B) COS7 cells were transiently transfected with the Runx reporter 6XOSE2-luc (firefly) along with expression vectors encoding human Runx2 (A), Runx1 (B), ERα, and/or ERβ as indicated. […] In each experiment, the firefly luciferase results were corrected for the expression of a co-transfected CMV-renilla luciferase construct (internal control), except for Panel A, where the renilla luciferase values are shown in the inset graph. […] All data are presented as mean values±SEM, with n=4 dish replicates of a representative experiment, repeated at least 3 times.
Cells were seeded at a density of 10,000 per well in 96-well plates and grown in 5% charcoal-stripped serum (CSS)-containing phenol red-free medium for 24 h. The indicated plasmids (50 ng reporter, 52 ng total) were transfected using ‘LTX and Plus reagent’ according to manufacture's specification (Invitrogen, Carlsbad, Calif.). Equimolar amounts of the empty vectors pcDNA 3.1 and pSG5 were used as controls, and the pCAT-basic promoter-less plasmid was used as ‘filler’ DNA. Under these conditions the total amounts of promoter equivalents (molar) and DNA mass (ng) were the same in all wells of a particular experiment. […] Luciferase activity was determined using the dual-assay luciferase kit (Promega, Madison, Wis.).

[9] = tested on: Runx2; experiment: 6XOSE2-luc Runx2 reporter luciferase assay, COS7 cells transfected with Runx2 and ERα; type: cell-based, human
Description: as §1
(§2) FIG. 6. Various effects of SERM-bound ERα on Runx2. […] (B, C) COS7 cells were transfected with Runx2 and its 6XOSE2-luc reporter (B), or with ERE-luc (C) along with expression vectors coding for the indicated ER isoforms or fragments. […] All data are presented as mean values±SEM, with n=4 dish replicates of a representative experiment, repeated at least 3 times.
Cells were seeded at a density of 10,000 per well in 96-well plates and grown in 5% charcoal-stripped serum (CSS)-containing phenol red-free medium for 24 h. The indicated plasmids (50 ng reporter, 52 ng total) were transfected using ‘LTX and Plus reagent’ according to manufacture's specification (Invitrogen, Carlsbad, Calif.). Equimolar amounts of the empty vectors pcDNA 3.1 and pSG5 were used as controls, and the pCAT-basic promoter-less plasmid was used as ‘filler’ DNA. Under these conditions the total amounts of promoter equivalents (molar) and DNA mass (ng) were the same in all wells of a particular experiment. As an internal control, 0.01 ng of tk-Renilla-luc or CMV-renilla-luc (Promega, Madison, Wis.) was used for correction of transfection efficiency. Cells were subsequently treated with vehicle (EtOH, 0.01%) or the indicated ligands for 24 h. Luciferase activity was determined using the dual-assay luciferase kit (Promega, Madison, Wis.).
COS7 cells were transiently transfected with the indicated expression vectors along with a reporter for either Runx2 (6XOSE2-luciferase) or the classical transcriptional activation activity of ER (ERE-luciferase).

[10] = target: T1, ERα (Homo sapiens, UniProt P03372); experiment: ERE-luc ER reporter luciferase assay in COS7 cells; type: cell-based; settings: 100 nM (FIG. 6C)
T1 sequence (P03372 1-595): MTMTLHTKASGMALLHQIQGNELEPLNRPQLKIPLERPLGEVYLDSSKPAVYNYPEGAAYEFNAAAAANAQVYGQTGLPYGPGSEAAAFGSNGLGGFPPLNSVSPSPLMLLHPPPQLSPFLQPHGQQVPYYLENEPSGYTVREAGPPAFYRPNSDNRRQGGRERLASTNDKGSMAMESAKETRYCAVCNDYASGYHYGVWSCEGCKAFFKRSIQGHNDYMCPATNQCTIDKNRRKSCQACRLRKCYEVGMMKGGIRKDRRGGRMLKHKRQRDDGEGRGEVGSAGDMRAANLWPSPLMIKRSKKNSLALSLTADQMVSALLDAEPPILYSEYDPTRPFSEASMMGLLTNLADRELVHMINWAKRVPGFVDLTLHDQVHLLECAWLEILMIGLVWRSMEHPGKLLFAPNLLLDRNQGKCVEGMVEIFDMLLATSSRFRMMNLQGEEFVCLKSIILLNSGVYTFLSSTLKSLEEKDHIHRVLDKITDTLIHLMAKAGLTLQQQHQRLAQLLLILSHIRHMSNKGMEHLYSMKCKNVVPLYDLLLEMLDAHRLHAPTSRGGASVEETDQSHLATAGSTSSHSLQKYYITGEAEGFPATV

[11] = target: ERα/Runx2 complexes (Homo sapiens, UniProt P03372); settings: COS7; E2 10 nM, OHT 100 nM, ICI 182780 100 nM; 24 h
Chain of ERα/Runx2 complexes (Q13950 1-507 isoform Q13950-2 partner, one chain of several): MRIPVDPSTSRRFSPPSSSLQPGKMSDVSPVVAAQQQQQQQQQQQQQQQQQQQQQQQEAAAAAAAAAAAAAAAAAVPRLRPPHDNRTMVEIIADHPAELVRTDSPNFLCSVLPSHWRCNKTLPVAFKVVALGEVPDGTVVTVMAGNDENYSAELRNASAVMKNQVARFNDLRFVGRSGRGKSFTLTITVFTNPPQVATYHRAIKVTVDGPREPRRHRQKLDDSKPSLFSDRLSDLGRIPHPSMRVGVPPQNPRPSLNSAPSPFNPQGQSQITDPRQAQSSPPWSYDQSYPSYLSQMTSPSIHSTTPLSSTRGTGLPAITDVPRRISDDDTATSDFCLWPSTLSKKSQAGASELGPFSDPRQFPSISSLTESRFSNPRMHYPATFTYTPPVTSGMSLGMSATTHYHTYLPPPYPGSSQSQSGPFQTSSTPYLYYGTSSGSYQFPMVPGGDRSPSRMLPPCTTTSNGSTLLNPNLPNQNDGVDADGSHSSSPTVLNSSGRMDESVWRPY
Description: Cells were seeded at a density of 300,000 per well in six-well plates and grown in 5% CSS-containing phenol red-free medium for 24 h. Cells were transfected when indicated, and 24 h later they were lysed in a 50 mM Tris-HCl buffer (pH 7.4) containing 150 mM NaCl, 1 mM EDTA, 1% Triton X-100, and fresh Protease Inhibitors Cocktail (1%; Sigma, St. Louis, Mo.). […] The remaining lysate was immunoprecipitated with approximately 3 μg of the specified antibody and 30 μl Protein-G beads (Amersham Biosciences Freiburg, Germany) and washed three times for 5 min each with the same buffer, followed by centrifugation at 4,000 rpm for 1 min. […] Input and immunoprecipitates were analyzed by Western blot analysis.

[12] = tested on: Runx2 in T47D cells; experiment: 6XOSE2-luc Runx2 reporter assay in T47D breast cancer cells; type: cell-based, human; settings: 100 nM
Description: as §2
(§3) COS7 cells were maintained in Dulbeco Modified Eagle Medium (DMEM) and 5% fetal bovine serum (FBS). The mouse osteoblastic cell line MC3T3-E1 was maintained in α-MEM and 10% FBS. Runx-reporter osteoblasts were generated by stable transfection of MC3T3-E1 cells with the 6XOSE2-luc reporter construct using the calcium phosphate coprecipitation method and hygromycin ([…]) as the selection drug. Resistance to hygromycin was conferred by cotransfection of the pCEP plasmid (1:15 molar ratio). To support development of the osteoblast phenotype, cells were treated with 50 μg/ml ascorbic acid and […] β-glycerophosphate commencing at confluence. The human breast cancer cell lines MDA-MB-231, T47D, and MCF7 were maintained in DMEM and 5% FBS.
(§4) Cells were seeded at a density of 10,000 per well in 96-well plates and grown in 5% charcoal-stripped serum (CSS)-containing phenol red-free medium for 24 h. […] Luciferase activity was determined using the dual-assay luciferase kit (Promega, Madison, Wis.).

[13] = tested on: Runx2 in MCF7 cells; experiment: 6XOSE2-luc Runx2 reporter assay in MCF7 breast cancer cells; type: cell-based, human; settings: 100 nM
Description: as §2, §3, §4

[14] = tested on: Runx2 in MDA-MB-231 cells; experiment: 6XOSE2-luc Runx2 reporter assay in MDA-MB-231 breast cancer cells expressing ERα; type: cell-based, human; settings: ERα expressed; E2 10 nM, OHT 100 nM, ICI 182780 100 nM
Description: as §2, §3, §4

[15] = tested on: Runx2; settings: same cells as Raloxifene; cited from earlier work
[16] = target: AR DBD (Homo sapiens, UniProt P10275 P10275:540-647); experiment: EMSA; GST-AR-DBD alone forms no complex with OSE2; settings: tags: GST fusion, E. coli BL21(DE3); label: 32P
Chain of AR DBD (P10275 540-647, one chain of several): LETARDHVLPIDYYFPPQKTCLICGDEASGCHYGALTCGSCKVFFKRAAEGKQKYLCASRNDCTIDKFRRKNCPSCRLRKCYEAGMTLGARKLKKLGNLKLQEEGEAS
Description: Where indicated, the binding reaction also contained purified GST, GST-AR-DBD, GST-AR-DBD^A573D (see FIG. 14G), or anti-Runx2 specific antibodies, either native (n) or denaturated by boiling (b). […] Arrow indicates Runx2/OSE2 complex.
The source for Runx2 was MC3T3-E1 cell extract and recombinant GST-AR-DBD was purified from E. coli.

[17] = COS7, 6XOSE2-Luc, 10 nM, 24 hrs

Molecule: C[C@]12CCC(=O)C[C@@H]1CC[C@@H]1[C@@H]2CC[C@]2(C)[C@@H](O)CC[C@@H]12 [DHT, dihydrotestosterone]
- 6XOSE2-Luc luciferase activity in SaOS-2 cells [1]: inhibited luciferase activity
- Effect of AR+DHT on Runx1 activity [2]: robustly inhibited
- Decrease of Runx2 occupancy of the endogenous OSE2 site [3]: 2.4 fold
- 6XOSE2-Luc reporter activity in PC3-AR cells [4]: strong repression
- OC expression (RT-qPCR) in PC3-AR cells [4]: strongly inhibited
- Expression of both 6XOSE2-Luc and OC on day 9 ([5]; MC3T3-E1, DHT chronically since confluence or 24 hrs prior to harvest): strongly inhibited
- AR protein levels in early and late MC3T3-E1 cultures ([5]; immunofluorescence, day 1 and day 9, DHT 24 hrs): strongly induced
- Effect on Runx2 activity in the absence of AR [6, 17]: did not affect
- Effect on Runx2 activity in the presence of AR [6, 17]: repressed Runx2 activity to basal levels
- Effect on Runx2 activity in the presence of GR ([6]; COS7, 6XOSE2-Luc, DHT 10 nM): did not alter
- Endogenous Runx-mediated activity in PC3 cells with transfected AR [7]: also inhibited

Molecule: C[C@]12CC[C@@H]3c4ccc(O)cc4CC[C@H]3[C@@H]1CC[C@@H]2O [E2, estradiol]
- Effect on Runx2 activity in the presence of ERβ [8]: did not inhibit
- Inhibition of Runx2 activity ([9]; COS7, 6XOSE2-luc, in the presence of ERα, E2 10 nM, 24 h (FIG. 1A)): 76%

Molecule: C[C@]12CC[C@@H]3c4ccc(O)cc4C[C@@H](CCCCCCCCC[S+]([O-])CCCC(F)(F)C(F)(F)F)[C@H]3[C@@H]1CC[C@@H]2O (stereo partly shown) [ICI 182780]
- Partial agonist effect on an ERE-containing template [10]: weak
- ERα/Runx2 interaction in co-IP (formation of ERα/Runx2 complexes) [11]: strongly induced
- Effect on Runx2 in T47D cells [12]: slightly stimulated
- Effect on Runx2 in MCF7 cells [13]: slightly stimulated
- Stimulation of Runx2 activity ([9]; COS7, 6XOSE2-luc, ERα, ICI 182780 100 nM, 24 h (FIG. 6B)): 3.1 fold
- Effect on 6XOSE2 Runx2 reporter in MDA-MB-231 cells [14]: slight if any inhibitory effect

Molecule: CC(=O)O[C@]1(C(C)=O)CC[C@H]2[C@@H]3C[C@H](C)C4=CC(=O)CC[C@]4(C)[C@H]3CC[C@@]21C [MPA]
- Effect of MPA-stimulated AR on Runx activities ([6]; COS7, 6XOSE2-luciferase, Runx2 and Runx1 (FIG. 21)): inhibited Runx activities

Molecule: CC/C(=C(\c1ccc(O)cc1)c1ccc(OCCN(C)C)cc1)c1ccccc1 [OHT, hydroxytamoxifen]
- Effect on Runx2 in T47D cells [12]: uniformly inhibitory
- Effect on Runx2 in MCF7 cells [13]: uniformly inhibitory
- Effect on Runx2 when bound to the ERαDBD-LBD ([9]; COS7, 6XOSE2-luc, ERαDBD-LBD fragment, 100 nM): stimulatory effect
- Effect on Runx2 activity ([9]; COS7, 6XOSE2-luc, full-length ERα, 100 nM, 24 h): slightly inhibited
- Effect on 6XOSE2 Runx2 reporter in MDA-MB-231 cells [14]: as strongly as E2

Molecule: O=C(c1ccc(OCCN2CCCCC2)cc1)c1c(-c2ccc(O)cc2)sc2cc(O)ccc12 [Raloxifene]
- Effect on Runx2 activity in COS7 cells (Example V) ([9]; 6XOSE2-luciferase, 100 nM Raloxifene, 24 hrs): small effect is stimulatory

Molecule: CC/C(=C(\c1ccccc1)c1ccc(OCCN(C)C)cc1)c1ccccc1 [Tamoxifene]
- Effect on Runx2 activity in COS7 cells (Khalid et al., 2008, FIG. 6B) [15]: small inhibitory effect

B1: OSE2 probe (dsDNA)
DNA 1: AGCTGCAATCACCAACCACAGCA
DNA 2: TGCTGTGGTTGGTGATTGCAGCT
- binding result [16]: no binding

— patent US20090226956A1, “RUNX-MEDIATED ACTION OF NUCLEAR RECEPTORS AND UTILITIES THEREOF” (University of Southern California, priority 2008, published 2009)
